{
  "source": "PubChem BioAssay (NCI)",
  "assay_in_all_cases": "DTP human tumour cell line panel, 48 h",
  "key": {"RXF 393 renal": {"system": "RXF 393 renal"}, "SR leukemia": {"system": "SR leukemia"}, "SK-MEL-28 melanoma": {"system": "SK-MEL-28 melanoma"}, "EKVX NSCLC": {"system": "EKVX NSCLC"}, "SK-MEL-2 melanoma": {"system": "SK-MEL-2 melanoma"}, "SF-295 CNS": {"system": "SF-295 CNS"}, "NCI-H522 lung": {"system": "NCI-H522 lung"}, "SK-OV-3 ovarian": {"system": "SK-OV-3 ovarian"}, "OVCAR-4 ovarian": {"system": "OVCAR-4 ovarian"}, "COLO 205 colon": {"system": "COLO 205 colon"}, "BT-549 breast": {"system": "BT-549 breast"}, "HS 578T breast": {"system": "HS 578T breast"}, "MDA-MB-435": {"system": "MDA-MB-435"}, "UACC-62 melanoma": {"system": "UACC-62 melanoma"}, "U251 CNS": {"system": "U251 CNS"}, "NCI/ADR-RES ovarian": {"system": "NCI/ADR-RES ovarian"}, "HOP-62 NSCLC": {"system": "HOP-62 NSCLC"}, "ACHN renal": {"system": "ACHN renal"}, "HCC-2998 colon": {"system": "HCC-2998 colon"}, "OVCAR-5 ovarian": {"system": "OVCAR-5 ovarian"}, "IGROV1 ovarian": {"system": "IGROV1 ovarian"}, "M14 melanoma": {"system": "M14 melanoma"}, "SN12C renal": {"system": "SN12C renal"}, "HCT-15 colon": {"system": "HCT-15 colon"}, "MALME-3M melanoma": {"system": "MALME-3M melanoma"}, "SNB-19 CNS": {"system": "SNB-19 CNS"}, "NCI-H23 lung": {"system": "NCI-H23 lung"}, "KM12 colon": {"system": "KM12 colon"}, "SNB-75 CNS": {"system": "SNB-75 CNS"}},
  "note": "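Results reflect a 48-hour exposure of cells in 96-well plates to compound at five concentrations. GI50: concentration for 50% inhibition of growth. At the TGI there is no net growth.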",
  "data": [
    {"smiles": "COC(=O)C(=Cc1ccccc1[N+](=O)[O-])C(=O)OC", "values": [
      {"measurement": "GI50", "setting": "RXF 393 renal", "value": 1.87, "unit": "µM"},
      {"measurement": "TGI", "setting": "RXF 393 renal", "value": 4.3, "unit": "µM"},
      {"measurement": "GI50", "setting": "SR leukemia", "value": 1.04, "unit": "µM"},
      {"measurement": "TGI", "setting": "SR leukemia", "value": 4.84, "unit": "µM"},
      {"measurement": "GI50", "setting": "SK-MEL-28 melanoma", "value": 2.16, "unit": "µM"},
      {"measurement": "TGI", "setting": "SK-MEL-28 melanoma", "value": 6.06, "unit": "µM"},
      {"measurement": "GI50", "setting": "EKVX NSCLC", "value": 4.23, "unit": "µM"},
      {"measurement": "TGI", "setting": "EKVX NSCLC", "value": 17, "unit": "µM"},
      {"measurement": "GI50", "setting": "SK-MEL-2 melanoma", "value": 3.61, "unit": "µM"},
      {"measurement": "TGI", "setting": "SK-MEL-2 melanoma", "value": 16.4, "unit": "µM"},
      {"measurement": "GI50", "setting": "SF-295 CNS", "value": 4.08, "unit": "µM"},
      {"measurement": "TGI", "setting": "SF-295 CNS", "value": 17.3, "unit": "µM"},
      {"measurement": "GI50", "setting": "NCI-H522 lung", "value": 1.9, "unit": "µM"},
      {"measurement": "TGI", "setting": "NCI-H522 lung", "value": 6.65, "unit": "µM"},
      {"measurement": "GI50", "setting": "SK-OV-3 ovarian", "value": 10.2, "unit": "µM"},
      {"measurement": "TGI", "setting": "SK-OV-3 ovarian", "value": 21.8, "unit": "µM"},
      {"measurement": "GI50", "setting": "OVCAR-4 ovarian", "value": 3.94, "unit": "µM"},
      {"measurement": "TGI", "setting": "OVCAR-4 ovarian", "value": 16.1, "unit": "µM"},
      {"measurement": "GI50", "setting": "COLO 205 colon", "value": 3.05, "unit": "µM"},
      {"measurement": "TGI", "setting": "COLO 205 colon", "value": 11, "unit": "µM"},
      {"measurement": "GI50", "setting": "BT-549 breast", "value": 7.14, "unit": "µM"},
      {"measurement": "TGI", "setting": "BT-549 breast", "value": 19.8, "unit": "µM"},
      {"measurement": "GI50", "setting": "HS 578T breast", "value": 2.04, "unit": "µM"},
      {"measurement": "TGI", "setting": "HS 578T breast", "value": 8.09, "unit": "µM"},
      {"measurement": "GI50", "setting": "MDA-MB-435", "value": 2.26, "unit": "µM"},
      {"measurement": "TGI", "setting": "MDA-MB-435", "value": 10.2, "unit": "µM"},
      {"measurement": "GI50", "setting": "UACC-62 melanoma", "value": 3.79, "unit": "µM"},
      {"measurement": "TGI", "setting": "UACC-62 melanoma", "value": 15.5, "unit": "µM"},
      {"measurement": "GI50", "setting": "U251 CNS", "value": 3.23, "unit": "µM"},
      {"measurement": "TGI", "setting": "U251 CNS", "value": 13.9, "unit": "µM"},
      {"measurement": "GI50", "setting": "NCI/ADR-RES ovarian", "value": 2.31, "unit": "µM"},
      {"measurement": "TGI", "setting": "NCI/ADR-RES ovarian", "value": 5.77, "unit": "µM"},
      {"measurement": "GI50", "setting": "HOP-62 NSCLC", "value": 13.6, "unit": "µM"},
      {"measurement": "TGI", "setting": "HOP-62 NSCLC", "value": 27.1, "unit": "µM"},
      {"measurement": "GI50", "setting": "ACHN renal", "value": 4.33, "unit": "µM"},
      {"measurement": "TGI", "setting": "ACHN renal", "value": 15.6, "unit": "µM"},
      {"measurement": "GI50", "setting": "HCC-2998 colon", "value": 2.68, "unit": "µM"},
      {"measurement": "TGI", "setting": "HCC-2998 colon", "value": 7.36, "unit": "µM"},
      {"measurement": "GI50", "setting": "OVCAR-5 ovarian", "value": 3.13, "unit": "µM"},
      {"measurement": "TGI", "setting": "OVCAR-5 ovarian", "value": 8.35, "unit": "µM"},
      {"measurement": "GI50", "setting": "IGROV1 ovarian", "value": 3.41, "unit": "µM"},
      {"measurement": "TGI", "setting": "IGROV1 ovarian", "value": 12, "unit": "µM"},
      {"measurement": "GI50", "setting": "M14 melanoma", "value": 3.04, "unit": "µM"},
      {"measurement": "TGI", "setting": "M14 melanoma", "value": 14, "unit": "µM"},
      {"measurement": "GI50", "setting": "SN12C renal", "value": 3.63, "unit": "µM"},
      {"measurement": "TGI", "setting": "SN12C renal", "value": 18.1, "unit": "µM"},
      {"measurement": "GI50", "setting": "HCT-15 colon", "value": 2.08, "unit": "µM"},
      {"measurement": "TGI", "setting": "HCT-15 colon", "value": 10.7, "unit": "µM"},
      {"measurement": "GI50", "setting": "MALME-3M melanoma", "value": 4.44, "unit": "µM"},
      {"measurement": "TGI", "setting": "MALME-3M melanoma", "value": 18.1, "unit": "µM"},
      {"measurement": "GI50", "setting": "SNB-19 CNS", "value": 5.41, "unit": "µM"},
      {"measurement": "TGI", "setting": "SNB-19 CNS", "value": 21.6, "unit": "µM"},
      {"measurement": "GI50", "setting": "NCI-H23 lung", "value": 2.62, "unit": "µM"},
      {"measurement": "TGI", "setting": "NCI-H23 lung", "value": 9.83, "unit": "µM"},
      {"measurement": "GI50", "setting": "KM12 colon", "value": 2.99, "unit": "µM"},
      {"measurement": "TGI", "setting": "KM12 colon", "value": 10, "unit": "µM"},
      {"measurement": "GI50", "setting": "SNB-75 CNS", "value": 2.75, "unit": "µM"},
      {"measurement": "TGI", "setting": "SNB-75 CNS", "value": 15.3, "unit": "µM"}
    ]}
  ]
}
